How the values were obtained:
Cox-2 [1] = assay: Cox-2 expression (Western blot / RT-PCR) in various cell types; assay type: cell-based, human; conditions: for Expression of Cox-2 on RNA and protein level: several systems: A-549, SK-Mel, HT-29, MDA-MB-231, THP-1, primary human lymphocytes and macrophages, FIGS. 1 and 2
Experimental: In HT-29 colon carcinoma cells Cox-2 expression was induced by treatment with 100 ng/ml TNF-α for 4 h.
Cells were seeded at densities between 5×10^4 and 1×10^5 cells per well of 24 well plates. Lysis was done by removing growth medium and adding 200 μl of Laemmli sample buffer per well. 60 μl were loaded on 8% acrylamide gels and subjected to discontinuous electrophoresis. Proteins blotted onto PVDF membranes were probed with a goat-anti-Cox-2 antibody (St. Cruz, sc1747) or a mouse anti-pan-actin antibody (Ab-5, NeoMarkers).
(§1) In detail, cells were seeded at a density of 7,5×10^4 per well in 24 well plates. Supernatants were analyzed in a dilution of 1:3 in duplicates with the prostaglandin E2 EIA Kit from Cayman according to the manufacture's instructions. Bars show the mean of two values. Cell extracts were prepared by removing growth medium completely and adding of 200 μl of Laemmli Sample buffer per well. Subsequently, 60 μl were loaded on 8% acrylamide gels and subjected to discontinuous electrophoresis.

THP-1 monocytes = assay: Prostaglandin secretion, Celecoxib plus HDAC inhibitor, THP-1 monocytes; assay type: cell-based, human; conditions: in combination with Celecoxib, FIG. 4
Experimental: In parallel, Cox-2 protein levels were reduced as already described.
as §1, with “electrophoresis. Proteins blotted onto PVDF membranes which were probed with a goat anti-Cox-2 antibody (St. Cruz, scl 747) or a mouse anti-pan-actin (to analyze the expression of this control protein) antibody (Ab-5, NeoMarkers).” for “electrophoresis.”

[2] = tested on: adenomas in C57BL/6J-APCmin/+ mice; assay: Adenoma number in the APCmin mouse model; assay type: in vivo; conditions: four weeks, VPA sodium salt 2×400 mg/kg/day i.p., Celecoxib 1250 ppm in diet, combination same dosages, FIG. 5A
Experimental: (§2) Control animals were injected (i.p.) with PBS. […] At sacrifice entire intestinal tracts were opened longitudinally and fixed in 10% phosphate buffered formaldehyde for 24 hours followed by ethanol-fixation in 50% ethanol for three days. […] Cyclooxygenase activity was assessed ex vivo in hepatic tissue as described (Reuter et al., 2002; BMC Cancer 2:19). Briefly, mice were euthanized 3 hours following the final dose of vehicle or drugs and a sample of liver tissue (−100 mg) was obtained. The samples were then placed into microcentrifuge tubes containing 1 ml of sodium phosphate buffer (10 mM, pH 7.4) and finely minced with scissors for 15 seconds. Samples were then incubated for 20 min at […] in a shaking water bath. After the incubation period, samples were centrifuged at 9000×g for 30 seconds and the supernatants collected. Supernatants were flash frozen in liquid nitrogen and stored at […] for subsequent determination of prostaglandin E2 content. PGE2 concentrations were determined in duplicates after 1:20 dilution of supernatants using a commercially available competitive Enzyme Immunoassay (Cayman Chemical).

[3] = tested on: collagen induced arthritis in DBA/1 mice; assay: Therapeutic collagen induced arthritis (CIA) model, clinical severity score; assay type: in vivo; conditions: DBA/1 mice with CIA, 15 days; VPA 2×400 mg/kg/d i.p., G2M-707 2×1 mg/mouse/d i.p.; versus control group; FIG. 6 upper panel
Experimental: To evaluate this anti-inflammatory potency of HDAC inhibitors in a therapeutic in vivo inflammation model we applied VPA and G2M-707 to mice that had developed collagen induced arthritis (CIA).
Prednisolon, a corticosteroid drug in clinical use for RA, was used as a positive control in this study.
In detail, in this therapeutic CIA model, DBA/1 female mice of age 7 weeks were immunized with 100 μg of chicken type II collagen (Chondrex) in CFA. Development of arthritis started 21 to 28 days after immunization and reached an incidence of 93% after 6 weeks. The severity was medium to high and reached a mean score of 10.3 (maximum score 15) in untreated animals. The mice were monitored daily for signs of arthritis using an established scoring system. At the first sign of arthritis, the affected mice were assigned to a treatment group. The mice were treated for 15 days with vehicle control or VPA at 2×400 mg/kg/d i.p. or G2M-707 at 2×1 mg/mouse/d i.p. or Prednisolon at 2×20 mg/kg/d (i.p.). Clinical severity of arthritis was assessed based on the appearance of each paw and subjectively graded on a scale of 0 to 4. The scores of each limb were summed, giving a maximum severity score of 16. […] After onset of disease the animals were scored 3 times a week.

TNF-α, IFN-γ and IL-6 = assay: Semi quantitative RT-PCR of cytokine RNA in LPS-induced THP-1 cells; assay type: cell-based, human; conditions: THP-1 cells differentiated with TPA; 1 mM VPA or 10 μM G2M-707 over night, then 10 μg/ml LPS 6 h; FIG. 1A
Experimental: (§3) THP-1 cells were induced to differentiate by addition of 20 ng/ml TPA to the growth medium for 3d. Adherent cells were seeded at a density of 5×10^5 cells per well of a 6-well plate, and were incubated with 1 mM VPA or 10 μM G2M-707 over night (FIG. 1A). Cox-2 expression was then induced by addition of 10 μg/ml LPS for 6 h. RNA was prepared using the RNeasy Kit from Qiagen according to the manufacturer's instructions. Reverse transcription was done with 1 μg of RNA in a volume of 20 μl. 1 μl was used for each PCR reaction with specific primers for the indicated genes.

Cox-2 [4] = assay: Semi quantitative RT-PCR of Cox-2 in peripheral blood lymphocytes of VPA-treated patients; assay type: in vivo, human; conditions: patients treated with 30 mg/kg/d or 120 mg/kg/d VPA; control gene GAPDH unchanged; FIG. 1B
Experimental: Semi quantitative RT-PCR was also performed with RNA isolated form peripheral blood lymphocytes of patients treated with doses 30 mg/kg/d (Patient 1) or 120 mg/kg/d VPA (Patient 2) respectively.

[5] = tested on: MDA-MB-231 mammary carcinoma cells; assay: Prostaglandin secretion, Celecoxib plus HDAC inhibitor, MDA-MB-231 cells; assay type: cell-based, human; conditions: in combination with Celecoxib, FIG. 4
Experimental: as §1

TNF-α = assay: Acute LPS-induced inflammation model, serum TNF-α ELISA; assay type: in vivo; conditions: 3H1 mice; i.p. 1 h before LPS (50 μg per mouse); blood 1 h after LPS; VPA 400 mg/kg/d, G2M-707 1 mg/mouse/d; FIG. 6 lower panel
Experimental: To evaluate the ability of HDAC inhibitors to inhibit soluble TNF-α secretion in vivo, an acute LPS-induced inflammation model in 3H1 mice was used. The mice were injected i.p. with substances tested 1 h before the i.p. injection of LPS. Blood samples were drawn 1 h after LPS stimulus and the TNF-α levels in the serum were determined using a TNF-α ELISA assay. As shown in FIG. 6 (lower panel), VPA and G2M-707 pretreatment led to a 60% reduction in absolute TNF-α serum levels in comparison to the control mice.
In detail, mice were treated with VPA (400 mg/kg/d, n=8), G2M-701 (1 mg/mouse/d, n=4), G2M-707 (1 mg/mouse/d, n=4) or with 200 μl PBS (control, n=8) 1 h before inflammation was induced with 50 μg LPS (Sigma) per mouse. One hour after the LPS treatment, blood was taken by cardiac puncture and serum was isolated. The serum was tested in a TNF-α sandwich ELISA module from Bender MedSystems. The assay was performed as described in the manufacturer's manual. ABTS was used as a substrate and measuring was accomplished with a 96-well plate reader at a wavelength of 405 nm. Absolute OD levels at 405 nm are given.

COX-2 RNA = assay: Semi quantitative RT-PCR of COX-2 RNA in LPS-induced THP-1 cells; assay type: cell-based, human; conditions: THP-1 cells differentiated with TPA; 1 mM VPA or 10 μM G2M-707 over night, then 10 μg/ml LPS 6 h; FIG. 1A
Experimental: as §3

prostaglandin E2 = assay: Prostaglandin levels in liver extracts of APCmin mice (ex vivo cyclooxygenase activity); set-up: species or system mouse; conditions: liver taken 3 hours after final dose, same treatment as adenoma study, FIG. 5b
Experimental: as §2

Structure (SMILES)	Expression of Cox-2 on RNA and protein level (Cox-2 [1])	prostaglandin levels, HDAC inhibitor added to Celecoxib (THP-1 monocytes)	number of adenomas [2]	clinical severity scores (sum score) [3]	TNF-α, IFN-γ and IL-6 RNA (TNF-α, IFN-γ and IL-6)	Cox-2 protein levels (Cox-2 [1]; MDA-MB-231 cells, VPA together with Celecoxib, FIG. 4)	Cox-2 RNA in peripheral blood lymphocytes of patients (Cox-2 [4])	repression of prostaglandin secretion by Celecoxib, HDAC inhibitor added [5]	reduction in absolute TNF-α serum levels in comparison to the control mice (TNF-α)	COX-2 RNA (COX-2 RNA)	prostaglandin levels in liver extracts (prostaglandin E2)
CC(/C=C/C(=O)NO)=C\[C@@H](C)C(=O)c1ccc(N(C)C)cc1 [TSA, Trichostatin A]	downregulated	reduce the prostaglandin levels further	–	–	–	–	–	–	–	–	–
CCCC(CCC)C(=O)O [VPA, 2-propyl-pentanoic acid]	downregulated	–	significantly reduces	efficiently reduced	downregulation	reduced	downregulation	dose dependently enhance	60%	downregulation	decrease
